Source: patent US8846933B2, “N-link hydroxamic acid derivatives useful as antibacterial agents” (Pfizer Inc., priority 2009, dated 2014)

How the values were obtained:
[1] = tested on: Escherichia coli EC-1: VOGEL, mouse virulent; assay: MIC determination (CLSI), strain EC-1; assay type: cell-based; details: strain EC-1, unit assumed
Procedure, shortened: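 The mouse-virulent VOGEL isolate of E. coli, EC-1, served as test organism. Minimum inhibitory concentration was measured by CLSI dilution methodology (M7-A7; M100-S18 standards).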

[2] = tested on: Pseudomonas aeruginosa UI-18: Wild-type (PA-7); assay: MIC determination (CLSI), strain PA-7; assay type: cell-based; details: strain PA-7, unit assumed
Procedure, shortened: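 Strain tested was P. aeruginosa UI-18, a wild-type isolate labelled PA-7. Minimum inhibitory concentrations followed CLSI dilution methodology for aerobically growing bacteria (M7-A7, M100-S18).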

[3] = generated in the same manner as in Table 4

| SMILES | EC-1 (MIC) [1, 3] | PA-7 (MIC) [2, 3] | EC-1 (MIC) [1] | PA-7 (MIC) [2] |
| --- | --- | --- | --- | --- |
| Cc1ccc(N)cc1-c1ccn(CCC(C)(C(=O)NO)S(C)(=O)=O)c(=O)c1 (stereo not drawn) [Example 108, 4-[4-(5-amino-2-methylphenyl)-2-oxopyridin-1(2H)-yl]-N-hydroxy-2-methyl-2-(methylsulfonyl)butanamide] | > 64 mg/L | > 64 mg/L | – | – |
| C[C@@](CCn1ccc(-c2ccc3cc(N)ncc3c2)cc1=O)(C(=O)NO)S(C)(=O)=O [Example 473] | – | – | 16 mg/L | 16 mg/L |
| C[C@@](CCn1ccc(-c2ccc3c(c2)CCC3=O)cc1=O)(C(=O)NO)S(C)(=O)=O [Example 339, (2R)-N-hydroxy-2-methyl-2-(methylsulfonyl)-4-[2-oxo-4-(1-oxo-2,3-dihydro-1H-inden-5-yl)pyridin-1(2H)-yl]butanamide] | – | – | 4 mg/L | 4 mg/L |
| CC(CCn1ccc(-c2ccc3ccc(O)cc3c2)cc1=O)(C(=O)NO)S(C)(=O)=O (stereo not drawn) [Example 299, N-hydroxy-4-[4-(7-hydroxy-2-naphthyl)-2-oxopyridin-1(2H)-yl]-2-methyl-2-(methylsulfonyl)butanamide] | – | – | 1 mg/L | 4 mg/L |
| Cc1cc(C#N)ccc1-c1ccn(CC[C@](C)(C(=O)NO)S(C)(=O)=O)c(=O)c1 [Example 472] | – | – | 32 mg/L | 8 mg/L |
| Cc1cccc(-c2ccn(CCC(C)(C(=O)NO)S(C)(=O)=O)c(=O)c2)c1 (stereo not drawn) [Example 178, N-hydroxy-2-methyl-4-[4-(3-methylphenyl)-2-oxopyridin-1(2H)-yl]-2-(methylsulfonyl)butanamide] | 4 mg/L | 2 mg/L | – | – |
| Cc1cc(F)ccc1-c1ccn(CCC(C)(C(=O)NO)S(C)(=O)=O)c(=O)c1 (stereo not drawn) [Example 122, 4-[4-(4-fluoro-2-methylphenyl)-2-oxopyridin-1(2H)-yl]-N-hydroxy-2-methyl-2-(methylsulfonyl)butanamide] | 16 mg/L | 8 mg/L | – | – |
| COc1cnc(-c2ccc(-c3ccn(CC[C@](C)(C(=O)NO)S(C)(=O)=O)c(=O)c3)cc2)nc1 [Example 387, (2R)-N-hydroxy-4-{4-[4-(5-methoxypyrimidin-2-yl)phenyl]-2-oxopyridin-1(2H)-yl}-2-methyl-2-(methylsulfonyl)butanamide] | – | – | 0.06 mg/L | 0.5 mg/L |
| C[C@@](CCn1ccc(-c2ccc3ncc(F)cc3c2)cc1=O)(C(=O)NO)S(C)(=O)=O [Example 316, (2R)-4-[4-(3-fluoroquinolin-6-yl)-2-oxopyridin-1(2H)-yl]-N-hydroxy-2-methyl-2-(methylsulfonyl)butanamide] | – | – | 4 mg/L | 2 mg/L |
| CC(CCn1ccc(-c2ccc(OCCCN3CC(O)C3)cc2)cc1=O)(C(=O)NO)S(C)(=O)=O (stereo not drawn) [Example 84, N-hydroxy-4-[4-{4-[3-(3-hydroxyazetidin-1-yl)propoxy]phenyl}-2-oxopyridin-1(2H)-yl]-2-methyl-2-(methylsulfonyl)butanamide] | > 64 mg/L | 32 mg/L | – | – |
| CC(CCn1ccc(-c2cc(F)cc(Cl)c2)cc1=O)(C(=O)NO)S(C)(=O)=O (stereo not drawn) [Example 121, 4-[4-(3-chloro-5-fluorophenyl)-2-oxopyridin-1(2H)-yl]-N-hydroxy-2-methyl-2-(methylsulfonyl)butanamide] | 8 mg/L | 16 mg/L | – | – |
| COc1ncc(-c2ccc(-c3ccn(CC[C@](C)(C(=O)NO)S(C)(=O)=O)c(=O)c3)cc2)cn1 [Example 410, (2R)-N-hydroxy-4-{4-[4-(2-methoxypyrimidin-5-yl)phenyl]-2-oxopyridin-1(2H)-yl}-2-methyl-2-(methylsulfonyl)butanamide] | – | – | 0.5 mg/L | 1 mg/L |
| CC(C)NC(=O)c1ccc(-c2ccn(CCC(C)(C(=O)NO)S(C)(=O)=O)c(=O)c2)cc1 (stereo not drawn) [Example 146, 4-{1-[4-(hydroxyamino)-3-methyl-3-(methylsulfonyl)-4-oxobutyl]-2-oxo-1,2-dihydropyridin-4-yl}-N-isopropylbenzamide] | > 64 mg/L | > 64 mg/L | – | – |
| CC(CCn1ccc(-c2ccc(C3CCCCC3)cc2)cc1=O)(C(=O)NO)S(C)(=O)=O (stereo not drawn) [Example 119, 4-[4-(4-cyclohexylphenyl)-2-oxopyridin-1(2H)-yl]-N-hydroxy-2-methyl-2-(methylsulfonyl)butanamide] | 0.5 mg/L | 16 mg/L | – | – |
| C[C@@](CCn1ccc(-c2ccc(-c3ccc(C#N)nc3)cc2)cc1=O)(C(=O)NO)S(C)(=O)=O [Example 415] | – | – | 1 mg/L | 2 mg/L |
| Cc1nnc(C)n1-c1ccc(-c2ccn(CC[C@](C)(C(=O)NO)S(C)(=O)=O)c(=O)c2)cc1 [Example 382, (2R)-4-{4-[4-(3,5-dimethyl-4H-1,2,4-triazol-4-yl)phenyl]-2-oxopyridin-1(2H)-yl}-N-hydroxy-2-methyl-2-(methylsulfonyl)butanamide] | – | – | > 64 mg/L | > 64 mg/L |
| CC(CCn1ccc(-c2ccc(OCCO)cc2Cl)cc1=O)(C(=O)NO)S(C)(=O)=O (stereo not drawn) [Example 232, 4-{4-[2-chloro-4-(2-hydroxyethoxy)phenyl]-2-oxopyridin-1(2H)-yl}-N-hydroxy-2-methyl-2-(methylsulfonyl)butanamide] | – | – | 16 mg/L | 16 mg/L |
| CC(CCn1ccc(OCCCC2CCCC2)cc1=O)(C(=O)NO)S(C)(=O)=O (stereo not drawn) [Example 488, 4-[4-(3-cyclopentylpropoxy)-2-oxopyridin-1(2H)-yl]-N-hydroxy-2-methyl-2-(methylsulfonyl)butanamide] | – | – | 8 mg/L | 64 mg/L |
| C[C@@](CCn1ccc(-c2ccc(-c3ccno3)cc2)cc1=O)(C(=O)NO)S(C)(=O)=O [Example 411, (2R)-N-hydroxy-4-[4-(4-isoxazol-5-ylphenyl)-2-oxopyridin-1(2H)-yl]-2-methyl-2-(methylsulfonyl)butanamide] | – | – | 0.5 mg/L | 0.5 mg/L |
| CC(CCn1ccc(-c2ccco2)cc1=O)(C(=O)NO)S(C)(=O)=O (stereo not drawn) [Example 175, 4-[4-(2-furyl)-2-oxopyridin-1(2H)-yl]-N-hydroxy-2-methyl-2-(methylsulfonyl)butanamide] | 64 mg/L | 16 mg/L | – | – |
| C[C@@](CCn1ccc(-c2ccc(-c3cocn3)cc2)cc1=O)(C(=O)NO)S(C)(=O)=O [Example 389, (2R)-N-hydroxy-2-methyl-2-(methylsulfonyl)-4-{4-[4-(1,3-oxazol-4-yl)phenyl]-2-oxopyridin-1(2H)-yl}butanamide] | – | – | 1 mg/L | 1 mg/L |
| C[C@@](CCn1ccc(-c2ccc(-c3cnoc3)cc2)cc1=O)(C(=O)NO)S(C)(=O)=O [Example 454, (2R)-N-hydroxy-4-[4-(4-isoxazol-4-ylphenyl)-2-oxopyridin-1(2H)-yl]-2-methyl-2-(methylsulfonyl)butanamide] | – | – | 2 mg/L | 4 mg/L |
| C[C@@](CCn1ccc(-c2ccc(-c3ccncc3)cc2)cc1=O)(C(=O)NO)S(C)(=O)=O [Example 402, (2R)-N-hydroxy-2-methyl-2-(methylsulfonyl)-4-[2-oxo-4-(4-pyridin-4-ylphenyl)pyridin-1(2H)-yl]butanamide] | – | – | 0.5 mg/L | 2 mg/L |
| C[C@@](CCn1ccc(-c2ccc(-n3cnnn3)cc2)cc1=O)(C(=O)NO)S(C)(=O)=O [Example 421, (2R)-N-hydroxy-2-methyl-2-(methylsulfonyl)-4-{2-oxo-4-[4-(1H-tetrazol-1-yl)phenyl]pyridin-1(2H)-yl}butanamide] | – | – | > 64 mg/L | 64 mg/L |
